Columns and labels:
Assay in all cases: Kinase Selectivity Assay
Type in all cases: biochemical
Settings in all cases: read-out: Percent Inhibition at 1 μM
BMX = target: T1, BMX (Homo sapiens, UniProt P51813)
T1 construct: purchased Invitrogen, Carlsbad, Calif
Experimental: (§1) Compounds were assayed for inhibitory activity against a panel of different kinase enzymes at a concentration of 1 μM. Where appropriate, full-length enzymes or catalytically active fragments, with N-terminal or C-terminal His- or GST-tags, were used (Invitrogen, Carlsbad, Calif.). Test compounds were initially diluted to 100× test concentration in 100% DMSO. This 100× concentration was then diluted to a 4× working concentration in Kinase Buffer (50 mM HEPES pH 7.5, 0.01% Brij-35, 10 mM MgCl2, 1 mM EGTA) and 2.5 μL was then added to a low volume NBS, 384-well plate (Corning, Corning, N.Y.). Five μL of a 2× peptide/kinase mixture (Invitrogen, Carlsbad, Calif.), as appropriate (listed in Table 3), was then added and the reaction was then initiated by addition of 2.5 μL of a 4× working concentration of ATP in Kinase Buffer.

ABL2 (Arg) = target: T2, ABL2 (Arg) (Homo sapiens, UniProt P42684)
T2 construct: purchased Invitrogen, Carlsbad, Calif
Experimental: as §1

EPHA1 = target: T3, EPHA1 (Homo sapiens, UniProt P21709)
T3 construct: purchased Invitrogen, Carlsbad, Calif
Experimental: as §1

FLT4 (VEGFR3) = target: T4, FLT4 (VEGFR3) (Homo sapiens, UniProt P35916)
T4 construct: full-length enzymes or catalytically active fragments; purchased Invitrogen
T4 sequence (P35916 25-1363): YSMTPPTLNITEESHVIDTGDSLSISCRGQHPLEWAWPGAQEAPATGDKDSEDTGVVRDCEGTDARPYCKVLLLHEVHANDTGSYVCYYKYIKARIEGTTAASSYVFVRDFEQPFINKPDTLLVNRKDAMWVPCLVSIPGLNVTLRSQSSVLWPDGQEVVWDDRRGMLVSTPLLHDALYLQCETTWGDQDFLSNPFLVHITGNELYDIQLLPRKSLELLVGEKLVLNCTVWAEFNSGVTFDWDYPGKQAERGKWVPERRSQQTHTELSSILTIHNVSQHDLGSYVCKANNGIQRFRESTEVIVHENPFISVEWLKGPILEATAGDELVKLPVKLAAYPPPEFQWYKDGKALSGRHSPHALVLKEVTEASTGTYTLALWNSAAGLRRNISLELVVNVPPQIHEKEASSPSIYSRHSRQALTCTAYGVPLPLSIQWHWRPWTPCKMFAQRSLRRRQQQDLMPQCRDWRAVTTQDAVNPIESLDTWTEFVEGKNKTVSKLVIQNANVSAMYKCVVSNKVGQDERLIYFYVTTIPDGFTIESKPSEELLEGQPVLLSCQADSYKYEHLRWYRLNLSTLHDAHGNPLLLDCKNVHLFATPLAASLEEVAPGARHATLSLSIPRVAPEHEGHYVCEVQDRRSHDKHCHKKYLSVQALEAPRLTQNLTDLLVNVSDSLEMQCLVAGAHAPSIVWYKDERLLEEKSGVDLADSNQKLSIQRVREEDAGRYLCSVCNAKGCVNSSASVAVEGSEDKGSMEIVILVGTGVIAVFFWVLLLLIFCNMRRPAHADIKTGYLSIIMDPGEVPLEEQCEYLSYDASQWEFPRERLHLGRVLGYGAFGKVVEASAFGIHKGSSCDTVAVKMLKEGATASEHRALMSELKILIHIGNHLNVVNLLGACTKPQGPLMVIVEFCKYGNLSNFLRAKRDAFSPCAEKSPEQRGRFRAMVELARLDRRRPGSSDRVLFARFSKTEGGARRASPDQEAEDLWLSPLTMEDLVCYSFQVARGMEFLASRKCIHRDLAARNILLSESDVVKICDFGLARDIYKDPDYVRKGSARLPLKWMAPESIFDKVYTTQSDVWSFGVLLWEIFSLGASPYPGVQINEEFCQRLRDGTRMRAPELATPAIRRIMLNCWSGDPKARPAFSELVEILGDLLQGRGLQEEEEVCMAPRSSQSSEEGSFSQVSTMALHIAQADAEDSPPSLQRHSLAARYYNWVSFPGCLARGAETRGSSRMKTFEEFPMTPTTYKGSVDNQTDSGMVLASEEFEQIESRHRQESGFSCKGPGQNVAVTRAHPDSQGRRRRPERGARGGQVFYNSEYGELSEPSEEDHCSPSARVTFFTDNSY
Experimental: as §1

IRAK4 = target: T5, IRAK4 (Homo sapiens, UniProt Q9NWZ3)
T5 construct: full-length enzymes or catalytically active fragments; purchased Invitrogen
T5 sequence (Q9NWZ3 whole entry, the tested form may be a part): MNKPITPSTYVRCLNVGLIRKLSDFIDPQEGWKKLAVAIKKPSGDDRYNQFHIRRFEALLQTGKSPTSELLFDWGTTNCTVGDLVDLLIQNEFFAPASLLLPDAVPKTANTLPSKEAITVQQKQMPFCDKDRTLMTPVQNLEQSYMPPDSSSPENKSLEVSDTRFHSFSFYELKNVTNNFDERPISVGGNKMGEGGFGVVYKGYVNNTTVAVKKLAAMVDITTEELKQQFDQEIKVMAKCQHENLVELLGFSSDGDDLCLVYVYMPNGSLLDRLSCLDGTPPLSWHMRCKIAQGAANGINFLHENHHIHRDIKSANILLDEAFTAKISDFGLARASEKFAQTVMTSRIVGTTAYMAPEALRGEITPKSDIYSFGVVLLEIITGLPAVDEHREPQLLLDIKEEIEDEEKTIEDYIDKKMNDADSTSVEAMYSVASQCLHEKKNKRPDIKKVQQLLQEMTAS
Experimental: as §1

PDGFRA D842V = target: T6, PDGFRA D842V (Homo sapiens, UniProt P16234, D842V)
T6 construct: full-length enzymes or catalytically active fragments; purchased Invitrogen
Experimental: as §1

PDGFRA T674I = target: T7, PDGFRA T674I (Homo sapiens, UniProt P16234, T674I)
T7 construct: full-length enzymes or catalytically active fragments; purchased Invitrogen
Experimental: as §1

FGFR2 = target: T8, FGFR2 (Homo sapiens, UniProt P21802)
T8 construct: full-length enzymes or catalytically active fragments; purchased Invitrogen
Experimental: as §1

FYN = target: T9, FYN (Homo sapiens, UniProt P06241)
T9 construct: full-length enzymes or catalytically active fragments; purchased Invitrogen
Experimental: as §1

BTK = target: T10, BTK (Homo sapiens, UniProt Q06187)
T10 construct: purchased Invitrogen, Carlsbad, Calif
Experimental: as §1

CSF1R (FMS) = target: T11, CSF1R (FMS) (Homo sapiens, UniProt P07333)
T11 construct: purchased Invitrogen, Carlsbad, Calif
Experimental: as §1

DAPK3 (ZIPK) = target: T12, DAPK3 (ZIPK) (Homo sapiens, UniProt O43293)
T12 construct: purchased Invitrogen, Carlsbad, Calif
Experimental: as §1

GSK3B (GSK3 beta) = target: T13, GSK3B (GSK3 beta) (Homo sapiens, UniProt P49841)
T13 construct: full-length enzymes or catalytically active fragments; purchased Invitrogen
T13 sequence (P49841 whole entry, the tested form may be a part): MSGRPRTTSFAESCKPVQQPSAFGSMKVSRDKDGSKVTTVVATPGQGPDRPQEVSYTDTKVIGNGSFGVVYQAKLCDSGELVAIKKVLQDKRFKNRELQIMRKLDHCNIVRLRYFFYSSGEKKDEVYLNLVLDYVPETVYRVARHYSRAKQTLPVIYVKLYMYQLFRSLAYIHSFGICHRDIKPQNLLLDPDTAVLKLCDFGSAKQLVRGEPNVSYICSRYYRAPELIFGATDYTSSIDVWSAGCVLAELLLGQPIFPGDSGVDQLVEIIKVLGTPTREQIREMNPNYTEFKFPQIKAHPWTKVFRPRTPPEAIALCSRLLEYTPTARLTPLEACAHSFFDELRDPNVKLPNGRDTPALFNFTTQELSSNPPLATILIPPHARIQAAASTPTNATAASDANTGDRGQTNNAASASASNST
Experimental: as §1

FLT3 D835Y = target: T14, FLT3 D835Y (Homo sapiens, UniProt P36888, D835Y)
T14 construct: full-length enzymes or catalytically active fragments; purchased Invitrogen
Experimental: as §1

KIT T670I = target: T15, KIT T670I (Homo sapiens, UniProt P10721, T670I)
T15 construct: full-length enzymes or catalytically active fragments; purchased Invitrogen
T15 sequence (P10721 26-976 T670I): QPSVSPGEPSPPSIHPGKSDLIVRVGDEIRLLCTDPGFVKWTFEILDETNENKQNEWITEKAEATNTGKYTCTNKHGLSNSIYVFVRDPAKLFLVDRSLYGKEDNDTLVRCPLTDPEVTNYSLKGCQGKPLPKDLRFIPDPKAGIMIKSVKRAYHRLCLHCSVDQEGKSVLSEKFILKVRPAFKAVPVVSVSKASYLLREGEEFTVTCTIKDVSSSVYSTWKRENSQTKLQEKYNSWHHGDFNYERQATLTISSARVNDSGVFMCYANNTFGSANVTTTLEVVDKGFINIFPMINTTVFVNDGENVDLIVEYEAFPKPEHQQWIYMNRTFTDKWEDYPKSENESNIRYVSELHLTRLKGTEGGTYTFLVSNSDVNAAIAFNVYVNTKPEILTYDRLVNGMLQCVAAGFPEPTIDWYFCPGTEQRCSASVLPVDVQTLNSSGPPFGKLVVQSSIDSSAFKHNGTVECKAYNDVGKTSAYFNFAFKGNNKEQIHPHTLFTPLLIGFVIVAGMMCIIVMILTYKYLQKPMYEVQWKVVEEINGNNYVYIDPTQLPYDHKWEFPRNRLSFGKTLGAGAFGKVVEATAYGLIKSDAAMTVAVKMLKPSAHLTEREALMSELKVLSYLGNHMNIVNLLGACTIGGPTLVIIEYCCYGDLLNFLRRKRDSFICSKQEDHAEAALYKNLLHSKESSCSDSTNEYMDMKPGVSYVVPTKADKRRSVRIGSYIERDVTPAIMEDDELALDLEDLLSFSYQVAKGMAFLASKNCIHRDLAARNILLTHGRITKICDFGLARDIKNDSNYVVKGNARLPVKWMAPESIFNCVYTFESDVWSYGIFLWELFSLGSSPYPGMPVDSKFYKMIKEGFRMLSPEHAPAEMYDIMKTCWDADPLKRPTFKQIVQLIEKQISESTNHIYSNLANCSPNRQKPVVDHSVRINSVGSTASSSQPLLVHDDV
Experimental: as §1

FLT1 (VEGFR1) = target: T16, FLT1 (VEGFR1) (Homo sapiens, UniProt P17948)
T16 construct: full-length enzymes or catalytically active fragments; purchased Invitrogen
Experimental: as §1

KDR (VEGFR2) = target: T17, KDR (VEGFR2) (Homo sapiens, UniProt P35968)
T17 construct: full-length enzymes or catalytically active fragments; purchased Invitrogen
Experimental: as §1

GSK3A (GSK3 alpha) = target: T18, GSK3A (GSK3 alpha) (Homo sapiens, UniProt P49840)
T18 construct: full-length enzymes or catalytically active fragments; purchased Invitrogen
Experimental: as §1

AURKB (Aurora B) = target: T19, AURKB (Aurora B) (Homo sapiens, UniProt Q96GD4)
T19 construct: purchased Invitrogen, Carlsbad, Calif
T19 sequence (Q96GD4 whole entry): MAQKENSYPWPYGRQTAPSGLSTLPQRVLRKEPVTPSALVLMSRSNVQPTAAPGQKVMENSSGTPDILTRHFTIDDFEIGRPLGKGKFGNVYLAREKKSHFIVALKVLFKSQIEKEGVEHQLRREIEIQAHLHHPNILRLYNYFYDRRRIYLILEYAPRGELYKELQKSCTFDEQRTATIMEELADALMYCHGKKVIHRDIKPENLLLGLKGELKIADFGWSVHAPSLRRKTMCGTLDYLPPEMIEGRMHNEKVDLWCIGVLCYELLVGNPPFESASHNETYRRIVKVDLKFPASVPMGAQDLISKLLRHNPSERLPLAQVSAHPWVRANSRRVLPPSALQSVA
Experimental: as §1

LYN A = target: T20, LYN A (Homo sapiens, UniProt P07948)
T20 construct: full-length enzymes or catalytically active fragments; purchased Invitrogen
Experimental: as §1

YES1 = target: T21, YES1 (Homo sapiens, UniProt P07947)
T21 construct: purchased Invitrogen, Carlsbad, Calif
Experimental: as §1

CDK2/cyclin A = target: T22, CDK2/cyclin A (Homo sapiens, UniProt P24941)
T22 construct: purchased Invitrogen, Carlsbad, Calif
Experimental: as §1

RET = target: T23, RET (Homo sapiens, UniProt P07949)
T23 construct: full-length enzymes or catalytically active fragments; purchased Invitrogen
Experimental: as §1

PDGFRA (PDGFR alpha) = target: T24, PDGFRA (PDGFR alpha) (Homo sapiens, UniProt P16234)
T24 construct: full-length enzymes or catalytically active fragments; purchased Invitrogen
Experimental: as §1

NTRK1 (TRKA) = target: T25, NTRK1 (TRKA) (Homo sapiens, UniProt P04629)
T25 construct: full-length enzymes or catalytically active fragments; purchased Invitrogen
Experimental: as §1

TBK1 = target: T26, TBK1 (Homo sapiens, UniProt Q9UHD2)
T26 construct: purchased Invitrogen, Carlsbad, Calif
Experimental: as §1

KIT = target: T27, KIT (Homo sapiens, UniProt P10721)
T27 construct: full-length enzymes or catalytically active fragments; purchased Invitrogen
T27 sequence (P10721 26-976): as the sequence (P10721 26-976 T670I) above, with I645T counted along it
Experimental: as §1

BLK = target: T28, BLK (Homo sapiens, UniProt P51451)
T28 construct: purchased Invitrogen, Carlsbad, Calif
Experimental: as §1

FLT3 = target: T29, FLT3 (Homo sapiens, UniProt P36888)
T29 construct: full-length enzymes or catalytically active fragments; purchased Invitrogen
Experimental: as §1

JAK2 = target: T30, JAK2 (Homo sapiens, UniProt O60674)
T30 construct: full-length enzymes or catalytically active fragments; purchased Invitrogen
Experimental: as §1

EPHB1 = target: T31, EPHB1 (Homo sapiens, UniProt P54762)
T31 construct: purchased Invitrogen, Carlsbad, Calif
T31 sequence (P54762 18-984): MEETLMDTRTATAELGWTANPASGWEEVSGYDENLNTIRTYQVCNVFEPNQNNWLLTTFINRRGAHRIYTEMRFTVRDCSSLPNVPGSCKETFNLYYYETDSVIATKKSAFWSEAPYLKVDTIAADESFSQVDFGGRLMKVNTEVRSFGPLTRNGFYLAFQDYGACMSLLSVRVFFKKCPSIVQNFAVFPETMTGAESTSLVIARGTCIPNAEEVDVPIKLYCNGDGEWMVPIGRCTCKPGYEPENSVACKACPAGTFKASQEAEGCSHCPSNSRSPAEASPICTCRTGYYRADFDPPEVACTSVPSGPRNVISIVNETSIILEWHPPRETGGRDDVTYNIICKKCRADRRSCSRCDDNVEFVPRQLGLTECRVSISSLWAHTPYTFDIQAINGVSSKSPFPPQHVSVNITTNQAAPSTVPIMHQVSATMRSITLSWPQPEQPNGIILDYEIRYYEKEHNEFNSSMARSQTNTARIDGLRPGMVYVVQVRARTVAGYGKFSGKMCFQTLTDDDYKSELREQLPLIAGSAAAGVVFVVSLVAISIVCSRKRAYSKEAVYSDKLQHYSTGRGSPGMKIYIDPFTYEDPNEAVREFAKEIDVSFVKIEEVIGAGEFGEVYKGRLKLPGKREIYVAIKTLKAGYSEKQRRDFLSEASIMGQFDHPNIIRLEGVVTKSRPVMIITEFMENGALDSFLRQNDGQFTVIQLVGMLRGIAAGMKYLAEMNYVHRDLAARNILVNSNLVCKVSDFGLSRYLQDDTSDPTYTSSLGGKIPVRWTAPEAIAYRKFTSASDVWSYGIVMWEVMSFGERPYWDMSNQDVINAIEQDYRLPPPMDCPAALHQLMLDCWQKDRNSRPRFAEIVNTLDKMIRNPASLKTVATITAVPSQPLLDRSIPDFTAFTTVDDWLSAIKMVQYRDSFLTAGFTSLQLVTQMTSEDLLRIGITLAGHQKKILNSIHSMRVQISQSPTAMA
Experimental: as §1

MAP2K1 (MEK1) = target: T32, MAP2K1 (MEK1) (Homo sapiens, UniProt Q02750)
T32 construct: full-length enzymes or catalytically active fragments; purchased Invitrogen
Experimental: as §1

AKT1 (PKB alpha) = target: T33, AKT1 (PKB alpha) (Homo sapiens, UniProt P31749)
T33 construct: purchased Invitrogen, Carlsbad, Calif
T33 sequence (P31749 whole entry): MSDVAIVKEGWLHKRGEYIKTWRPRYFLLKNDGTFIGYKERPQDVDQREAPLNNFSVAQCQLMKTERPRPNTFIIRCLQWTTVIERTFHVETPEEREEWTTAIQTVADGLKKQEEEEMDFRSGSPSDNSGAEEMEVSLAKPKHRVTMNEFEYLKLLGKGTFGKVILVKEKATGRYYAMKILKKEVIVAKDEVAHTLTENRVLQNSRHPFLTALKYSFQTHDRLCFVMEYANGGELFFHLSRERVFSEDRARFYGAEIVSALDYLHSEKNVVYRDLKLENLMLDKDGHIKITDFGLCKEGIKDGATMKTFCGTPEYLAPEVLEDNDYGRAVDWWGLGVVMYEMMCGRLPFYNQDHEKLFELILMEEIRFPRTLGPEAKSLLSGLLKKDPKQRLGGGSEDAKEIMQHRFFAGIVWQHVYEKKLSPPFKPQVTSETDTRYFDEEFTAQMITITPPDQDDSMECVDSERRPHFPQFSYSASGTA
Experimental: as §1

ROS1 = target: T34, ROS1 (Homo sapiens, UniProt P08922)
T34 construct: full-length enzymes or catalytically active fragments; purchased Invitrogen
Experimental: as §1

STK6 (Aurora A) = target: T35, STK6 (Aurora A) (Homo sapiens, UniProt O14965)
T35 construct: full-length enzymes or catalytically active fragments; purchased Invitrogen
Experimental: as §1
Note: ATP at apparent Km or 100 µM.

Compound	inhibition at 1 µM (BMX)	inhibition at 1 µM (ABL2 (Arg))	inhibition at 1 µM (EPHA1)	inhibition at 1 µM (FLT4 (VEGFR3))	inhibition at 1 µM (IRAK4)	inhibition at 1 µM (PDGFRA D842V)	inhibition at 1 µM (PDGFRA T674I)	inhibition at 1 µM (FGFR2)	inhibition at 1 µM (FYN)	inhibition at 1 µM (BTK)	inhibition at 1 µM (CSF1R (FMS))	inhibition at 1 µM (DAPK3 (ZIPK))	inhibition at 1 µM (GSK3B (GSK3 beta))	inhibition at 1 µM (FLT3 D835Y)	inhibition at 1 µM (KIT T670I)	inhibition at 1 µM (FLT1 (VEGFR1))	inhibition at 1 µM (KDR (VEGFR2))	inhibition at 1 µM (GSK3A (GSK3 alpha))	inhibition at 1 µM (AURKB (Aurora B))	inhibition at 1 µM (LYN A)	other results
Cc1cc(Nc2nc(/C=C/c3ccccc3)nc(N3CCN(C)CC3)c2N)[nH]n1 [Example 10, 6-(4-methylpiperazin-1-yl)-N-(3-methyl-1H-pyrazol-5-yl)-2-[(E)-2-phenylvinyl]pyrimidin-4,5-diamine]	19%	32%	52%	87%	14%	9%	65%	53%	50%	28%	80%	93%	26%	80%	44%	25%	88%	38%	37%	63%	inhibition at 1 µM (YES1): 80%; inhibition at 1 µM (CDK2/cyclin A): 8%; inhibition at 1 µM (RET): 95%; inhibition at 1 µM (PDGFRA (PDGFR alpha)): 58%; inhibition at 1 µM (NTRK1 (TRKA)): 92%; inhibition at 1 µM (TBK1): 73%; inhibition at 1 µM (KIT): 39%; inhibition at 1 µM (BLK): 67%; inhibition at 1 µM (FLT3): 93%; inhibition at 1 µM (JAK2): 61%; inhibition at 1 µM (EPHB1): 32%; inhibition at 1 µM (MAP2K1 (MEK1)): 23%; inhibition at 1 µM (AKT1 (PKB alpha)): 9%; inhibition at 1 µM (ROS1): 54%; inhibition at 1 µM (STK6 (Aurora A)): 83%
Cc1cc(Nc2cc(N3CCN(C)CC3)nc(/C=C/c3ccccc3)n2)n[nH]1 [Example 31, 6-(4-methylpiperazin-1-yl)-N-(3-methyl-1H-pyrazol-5-yl)-2-[(E)-2-phenylvinyl]pyrimidin-4-amine]	61%	74%	77%	97%	63%	24%	88%	86%	89%	63%	97%	68%	28%	98%	79%	53%	96%	36%	75%	84%	inhibition at 1 µM (YES1): 88%; inhibition at 1 µM (CDK2/cyclin A): 8%; inhibition at 1 µM (RET): 98%; inhibition at 1 µM (PDGFRA (PDGFR alpha)): 83%; inhibition at 1 µM (NTRK1 (TRKA)): 96%; inhibition at 1 µM (TBK1): 80%; inhibition at 1 µM (KIT): 75%; inhibition at 1 µM (BLK): 90%; inhibition at 1 µM (FLT3): 98%; inhibition at 1 µM (JAK2): 91%; inhibition at 1 µM (EPHB1): 61%; inhibition at 1 µM (MAP2K1 (MEK1)): 3%; inhibition at 1 µM (AKT1 (PKB alpha)): 5%; inhibition at 1 µM (ROS1): 65%; inhibition at 1 µM (STK6 (Aurora A)): 96%

— patent US7563787B2, “Substituted pyrazole compounds” (Miikana Therapeutics, Inc., priority 2005, dated 2009)
